Assay results reported in PMC10537185, “Dihydroxyphenyl- and Heteroaromatic-Based Thienopyrimidinones to Tackle HIV-1 LEDGF/p75-Dependent IN Activity” (Molecules, 2023).
Like-named read-outs stand apart in the source and are kept apart here.

Key:
HIV-1 RT-RNase H [1] = target: T1, HIV-1 RT-RNase H (Human immunodeficiency virus type 1 group M subtype B, UniProt P04585); set-up: method as in PMID 23631411; settings: cited from earlier work
T1 construct: preparation and purification of wild type p66/p51 HIV-1 RT; made in house

[2] = target: T2, HIV-1 IN LEDGF/p75-dependent activity (Human immunodeficiency virus type 1 group M subtype B, UniProt P04585); assay: HTRF LEDGF-dependent IN assay; format: biochemical; settings: for IC50: recombinant IN with LEDGF/p75, HTRF; for IN inhibitory activity (in words): LEDGF/p75-dependent IN activity
T2 construct: Recombinant His and FLAG-IN proteins and His and FLAG-LEDGF proteins were expressed in Escherichia coli strain BL21 (DE3); His or FLAG (separate preparations); made in house; host or cells: Escherichia coli BL21 (DE3)
Experimental: Recombinant His and FLAG-IN proteins and His and FLAG-LEDGF proteins were expressed in Escherichia coli strain BL21 (DE3) and purified, as previously described.
IN activity in the presence of recombinant LEDGF/p75 protein were determined as described before. IN was pre-incubated in reaction buffer containing 20 mM HEPES pH 7.5, 1 mM DTT, 1% glycerol, 20 mM MgCl2, 0.05% Brij-35 and 0.1 mg/mL BSA with increasing concentration of compounds for 1 h at room temperature. After the addition to this mixture of 9 nM DNA donor substrate, 50 nM DNA acceptor substrate and 50 nM LEDGF/p75 protein (when required), the reaction was incubated at 37 °C for 90 min. The addition of 4 nM of Europium–Streptavidin to the reaction mixture provided the HTRF signal, which was recorded using a Perkin Elmer (Waltham, MA, USA) Victor 3 plate reader with 314 nm for excitation wavelength and 668 and 620 nm for the wavelength of the acceptor and the donor substrates emission, respectively.

HIV-1 RT-RNase H [3] = target: T1, HIV-1 RT-RNase H; assay: RNase H inhibitory assay (fluorescent RNA/DNA hybrid); format: biochemical; settings: for IC50: wild type p66/p51 HIV-1 RT
Experimental: The previously reported procedure was used for preparation and purification of wild type p66/p51 HIV-1 RT. Enzyme was stored in a 50% glycerol-containing buffer at −20 °C [32, 46]. An 18-nt 3′-fluorescein-labeled RNA annealed to a complementary 18-nt 5′-dabsyl-labeled DNA was used to determine IC50 values, following a previously described procedure. In brief, 1 μL of each inhibitor dissolved in DMSO was added to a 96-well plate, followed by 10 μL of the proper RT ([…]) in reaction buffer. The addition of 10 μL of RNA/DNA hybrid (2.5 μM) initiated the hydrolysis. Then, 50 mM Tris-HCl, pH 8.0, 60 mM KCl, 10 mM MgCl2, 1% DMSO, 150−800 ng of RT, 250 nM substrate, and increasing concentrations of inhibitor were chosen as final assay conditions. As negative control, wells containing only DMSO were used. Subsequently, the plates were incubated in a Spectramax Gemini EM fluorescence spectrometer for 10 min at 37 °C, measuring the fluorescence (λex = 485 nm; λem = 520 nm) at 1 min intervals in order to determine the linear initial rates in the presence (vi) and absence (vo) of inhibitor. Percent inhibition was assessed as 100(vo − vi)/vo and plotted against log[I]. Prism5 (GraphPad Software 5.0) was used to calculate the IC50 values. All assays were carried out in triplicate.

[4] = target: T2, HIV-1 IN LEDGF/p75-dependent activity; set-up: method as in PMID 23631411; settings: first experiment, 3,4-catechol analogue of 5; cited from earlier work

Compound | IC50 [2] [µM] | IC50 (HIV-1 RT-RNase H [3]) [µM] | further results
Cc1sc2nc(-c3ccc(O)c(O)c3)[nH]c(=O)c2c1C [Compound 8, 2-(3,4-dihydroxyphenyl)-5,6-dimethylthieno[2,3-d]pyrimidin-4(3H)-one] | 24.4 ± 2.6 | 0.26 ± 0.01 | IC50 (HIV-1 RT-RNase H [1]): 0.26 ± 0.01 µM
O=c1[nH]c(-c2ccc(O)c(O)c2)nc2sc3c(c12)CCCCC3 [Compound 9] | 18.3 ± 2.3 | – | IC50 (HIV-1 RT-RNase H [1]): 0.29 ± 0.11 µM
Cc1sc2nc(-c3cccc(O)c3O)[nH]c(=O)c2c1C [Compound 10, 2-(2,3-dihydroxyphenyl)-5,6-dimethylthieno[2,3-d]pyrimidin-4(3H)-one] | 12.6 ± 1.29 | – | –
Cc1sc2nc(-c3ccccc3O)[nH]c(=O)c2c1C [Compound 11, 2-(2-hydroxyphenyl)-5,6-dimethylthieno[2,3-d]pyrimidin-4(3H)-one] | 22 ± 2.8 | – | –
Cc1sc2nc(-c3ccc(O)cc3O)[nH]c(=O)c2c1C [Compound 12, 2-(2,4-dihydroxyphenyl)-5,6-dimethylthieno[2,3-d]pyrimidin-4(3H)-one] | 22.3 ± 1.57 | – | –
Cc1sc2nc(-c3cc(O)ccc3O)[nH]c(=O)c2c1C [Compound 13] | 85 ± 6 | – | –
Cc1sc2nc(-c3cc(O)cc(O)c3)[nH]c(=O)c2c1C [Compound 14, 2-(3,5-dihydroxyphenyl)-5,6-dimethylthieno[2,3-d]pyrimidin-4(3H)-one] | 3.7 ± 0.73 | – | –
O=c1[nH]c(-c2cccc(O)c2O)nc2sc3c(c12)CCCCC3 [Compound 15] | 24 ± 1 | – | –
O=c1[nH]c(-c2ccc(O)cc2O)nc2sc3c(c12)CCCCC3 [Compound 16] | 10 ± 1 | – | –
O=c1[nH]c(-c2cc(O)ccc2O)nc2sc3c(c12)CCCCC3 [Compound 17] | 5.65 ± 0.15 | – | –
O=c1[nH]c(-c2cc(O)cc(O)c2)nc2sc3c(c12)CCCCC3 [Compound 18] | 3.37 ± 0.48 | – | –
CC1CCCc2sc3nc(-c4ccc(O)c(O)c4)[nH]c(=O)c3c21 (stereo not shown) [Compound 19, 2-(3,4-dihydroxyphenyl)-5-methyl-5,6,7,8-tetrahydrobenzo[4,5]thieno[2,3-d]pyrimidin-4(3H)-one] | 5.9 ± 0.5 | – | –
CC(C)Cc1csc2nc(-c3ccc(O)c(O)c3)[nH]c(=O)c12 [Compound 20, 2-(3,4-dihydroxyphenyl)-5-isobutylthieno[2,3-d]pyrimidin-4(3H)-one] | 8.5 ± 2.5 | – | –
Cc1sc2nc(-c3ccco3)[nH]c(=O)c2c1C [Compound 21, 2-(furan-2-yl)-5,6-dimethylthieno[2,3-d]pyrimidin-4(3H)-one] | 5.75 ± 0.85 | 2.5 ± 0.1 | –
Cc1ccc(-c2nc3sc(C)c(C)c3c(=O)[nH]2)o1 [Compound 22, 5,6-dimethyl-2-(5-methylfuran-2-yl)thieno[2,3-d]pyrimidin-4(3H)-one] | 8.75 ± 0.35 | 14.4 ± 0.2 | –
Cc1sc2nc(-c3ccc([N+](=O)[O-])o3)[nH]c(=O)c2c1C [Compound 23] | 4.6 ± 0.82 | – | IC50 (HIV-1 RT-RNase H [1]): 16.9 ± 1.7 µM
Cc1sc2nc(-c3cccs3)[nH]c(=O)c2c1C [Compound 24, 5,6-dimethyl-2-(thiophen-2-yl)thieno[2,3-d]pyrimidin-4(3H)-one] | > 50 | 8.2 ± 1.3 | IN inhibitory activity (in words) [2]: inactive
Cc1sc2nc(-c3ccc([N+](=O)[O-])s3)[nH]c(=O)c2c1C [Compound 25, 5,6-dimethyl-2-(5-nitrothiophen-2-yl)thieno[2,3-d]pyrimidin-4(3H)-one] | 3.2 ± 0.8 | > 50 | RNase H inhibitory activity (in words) (HIV-1 RT-RNase H [3]): completely inactive
Cc1sc2nc(-c3c[nH]c4ccccc34)[nH]c(=O)c2c1C [Compound 26] | 2.85 ± 0.85 | – | IC50 (HIV-1 RT-RNase H [1]): 0.48 ± 0.6 µM
Cc1sc2nc(-c3ccc[nH]3)[nH]c(=O)c2c1C [Compound 27, 5,6-dimethyl-2-(1H-pyrrol-2-yl)thieno[2,3-d]pyrimidin-4(3H)-one] | > 50 | 35.3 ± 1.5 | IN inhibitory activity (in words) [2]: completely IN inactive
Cc1sc2nc(-c3cccn3C)[nH]c(=O)c2c1C [Compound 28, 5,6-dimethyl-2-(1-methyl-1H-pyrrol-2-yl)thieno[2,3-d]pyrimidin-4(3H)-one] | > 50 | 14.8 ± 0.6 | IN inhibitory activity (in words) [2]: completely IN inactive
CCCc1c(C)sc2nc(-c3ccc(O)c(O)c3)[nH]c(=O)c12 [Compound 29] | – | – | IC50 [4]: > 50 µM
